Assay results reported in patent US8349896B2, “Aspirin-triggered lipid mediators” (The Brigham and Womens's Hospital, Inc., priority 2000, dated 2013).
Read-outs that look alike come from different tables or passages of the source.

Columns and labels:
[1] = test system: human PMN; assay: LTB4-stimulated PMN transendothelial migration; format: cell-based; settings: for potency relative to the compounds derived from EPA: similar to results of FIGS. 9A (transmigration) and 9C (air pouch), no data shown; for rank order of potency, inhibition of PMN migration: tested in parallel for direct comparison; for IC50: human PMN, FIG. 9A
Procedure: Human PMNs were freshly isolated from venous blood of healthy volunteers (that declined taking medication for 2 wk before donation; Brigham and Women's Hospital protocol no. 88-02642) by Ficoll gradient and enumerated. Human umbilical vein or microvascular ECs (HUVECs or HMVECs, respectively) were cultured for transendothelial migration (Reference 10), HMVEC monolayers (one, two, or three passages) were seeded (−2×10^5 cells/cm^2) on polycarbonate permeable supports precoated with 0.1% gelatin for incubations with NSAIDs and PUFA.

[2] = biological target: T1, Recombinant Human COX-2 (Homo sapiens, UniProt P35354); assay: Conversion of PUFA to hydroxy compounds by recombinant COX-2 incubated with NSAID; format: biochemical; settings: for 11R-HEPE, conversion of n-3 C20:5 / 15R-HEPE, conversion of n-3 C20:5 / 18R-HEPE, conversion of n-3 C20:5: Table 2, mean amount +/− SEM
T1 construct: host or cells: Sf9 insect cells, baculovirus; microsomal fractions
T1 sequence (P35354 18-604): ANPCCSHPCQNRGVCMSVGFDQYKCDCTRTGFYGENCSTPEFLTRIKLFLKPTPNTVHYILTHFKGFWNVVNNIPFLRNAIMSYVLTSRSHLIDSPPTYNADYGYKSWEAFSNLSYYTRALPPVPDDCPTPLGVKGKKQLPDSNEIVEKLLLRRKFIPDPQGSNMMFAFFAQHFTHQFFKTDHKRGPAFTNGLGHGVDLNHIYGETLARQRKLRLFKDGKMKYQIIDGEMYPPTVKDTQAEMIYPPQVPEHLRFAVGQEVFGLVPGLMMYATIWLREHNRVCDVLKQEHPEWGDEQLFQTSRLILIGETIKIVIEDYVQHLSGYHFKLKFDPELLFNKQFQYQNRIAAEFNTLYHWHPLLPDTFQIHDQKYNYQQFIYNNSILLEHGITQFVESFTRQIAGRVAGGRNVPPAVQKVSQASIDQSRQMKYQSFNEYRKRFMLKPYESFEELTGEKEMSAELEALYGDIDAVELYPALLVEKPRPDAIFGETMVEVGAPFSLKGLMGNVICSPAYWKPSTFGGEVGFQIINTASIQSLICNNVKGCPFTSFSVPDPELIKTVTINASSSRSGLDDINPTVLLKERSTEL
Procedure: Human recombinant COX-2 (a gift from Dr. R. A. Copeland, DuPont Merck, Wilmington, Del.) was overexpressed in […] (American Type Culture Collection) with microsomal fractions (˜8 μl) suspended in Tris (100 mM, pH 8.0) as in Reference 21. George, H. J., D. E. Van Dyk, R. A. Straney, J. M. Trzaskos, and R. A. Copeland. 1996. Expression purification and characterization of recombinant human inducible prostaglandin G/H synthase from baculovirus-infected insect cells. Protein Expres. Purif. 7:19-26. NSAIDs were incubated (i.e., ASA ˜1 mM) at 37° C. for 30 min before addition of PUFA (20 μM), and conversions were also monitored using 1-^14C-labeled C20:4 (See FIGS. 2A and 2B) or C20:5 (NEN Life Science Products) (See FIGS. 2C and 2D).

[3] = biological target: T2, recombinant human LTB4 receptor (Homo sapiens, UniProt Q15722); assay: [3H]LTB4 competition binding, HEK-293 cells stably expressing receptor; settings: HEK293 cells
T2 construct: expressed in transfected cells
T2 sequence (Q15722 whole entry): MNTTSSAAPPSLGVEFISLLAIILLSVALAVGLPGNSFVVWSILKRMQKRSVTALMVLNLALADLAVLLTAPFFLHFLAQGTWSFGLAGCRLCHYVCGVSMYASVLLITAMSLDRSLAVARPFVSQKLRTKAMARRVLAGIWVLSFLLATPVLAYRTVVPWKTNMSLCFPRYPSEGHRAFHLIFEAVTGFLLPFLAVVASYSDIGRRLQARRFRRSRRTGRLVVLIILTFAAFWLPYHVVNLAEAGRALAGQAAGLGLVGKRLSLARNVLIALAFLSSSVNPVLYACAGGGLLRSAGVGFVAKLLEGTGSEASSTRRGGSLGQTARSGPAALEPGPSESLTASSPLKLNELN

[4] = test system: PMN infiltration into murine dorsal air pouches; assay: TNF-α induced leukocyte/PMN infiltration into murine dorsal air pouch; format: in vivo, FVB mice; settings: 100 ng intravenously into tail; TNF-α 100 ng/pouch; lavage at 4 h
Procedure: Inflammatory exudates were initiated with intrapouch injection of TNF-α (R&D Systems) into 6 d dorsal air pouches with (Reference 16) 6-8-wk-old male FVB mice (fed standard rodent diet 5001 containing 0.26% n-3 fatty acids) followed by ASA (500 μg) at 3.5 h and 300 μg C20:5/pouch at 4 h. At 6 h, pouches were lavaged (3 ml saline), and exudate cells were enumerated and activated 94 μM A23187, 37° C., 20 min). Inhibition of TNF-α-stimulated (100 ng/pouch, FVB strain) PMN infiltration with intravenous tail injection of either 18 R-hydroxyeicosapentaenoic acid (HEPE), 5, 12, 18R-HEPE, or 15-epi-LXA, analogue was determined (Reference 16) with pouch lavages taken at 4 h.

[5] = PUFA 20 μM, ASA ~1 mM or NS398 100 uM, mean ± SEM
[6] = PUFA 20 μM, ASA ~1 mM, mean ± SEM
[7] = Table 1, PUFA 20 μM, ASA ~1 mM or NS398 100 uM, mean ± SEM

Molecule: 19-hydroxy-DHA
- potency relative to the compounds derived from EPA [1]: potencies equivalent to those described above for the compounds derived from EPA

Molecule: CC/C=C\C=C\C(O)C/C=C\C/C=C\C/C=C\C/C=C\CCC(=O)O (stereo not drawn) [16-hydroxy-DHA]
- potency relative to the compounds derived from EPA [1]: potencies equivalent to those described above for the compounds derived from EPA

Molecule: CC(=O)Nc1ccc(O)cc1 [Acetaminophen]
- 11R-HEPE, conversion of n-3 C20:5 [2]: 6.7 ± 3.0 ng
- 15R-HEPE, conversion of n-3 C20:5 [2]: 4.6 ± 1.2 ng
- 18R-HEPE, conversion of n-3 C20:5 [2]: 5.5 ± 2.4 ng
- reduction of levels of 15R- and 18R-HEPE versus absence of inhibitors ([2]; recombinant COX-2 and C20:5, concentrations as high as 2 mM, n=3): three to eight times

Molecule: CC(=O)Oc1ccccc1C(=O)O [ASA, aspirin]
- increase in 18R-HEPE on ASA acetylation of COX-2 ([2]; C20:5): approximately twofold increase
- reduction in 11R-HEPE on ASA acetylation of COX-2 ([2]; C20:5): > 85%
- 11R-HETE (ω-9) generated from C20:4 [2, 5]: 1.4 ± 1.6 ng/incubation
- 15R-HETE (ω-5) generated from C20:4 [2, 5]: 234.0 ± 112.5 ng/incubation
- 9-HODE (ω-9) generated from C18:2 [2, 6]: 25.2 ± 17.8 ng/incubation
- 13-HODE (ω-5) generated from C18:2 [2, 6]: 2.9 ± 0.6 ng/incubation
- 11R-HEPE (ω-9) generated from C20:5 [2, 7]: 5.4 ± 3.3 ng/incubation
- 15R-HEPE (ω-5) generated from C20:5 [2, 7]: 16.8 ± 5.8 ng/incubation
- 18R-HEPE (ω-2) generated from C20:5 [2, 7]: 16.2 ± 3.3 ng/incubation
- 11R-HEPE, conversion of n-3 C20:5 [2]: 5.5 ± 2.3 ng
- 15R-HEPE, conversion of n-3 C20:5 [2]: 8.0 ± 5.6 ng
- 18R-HEPE, conversion of n-3 C20:5 [2]: 12.2 ± 4.6 ng

Molecule: CCC(O)/C=C/C=C\C/C=C\C/C=C\C/C=C\C/C=C\CCC(=O)O (stereo not drawn) [20-hydroxy-DHA]
- potency relative to the compounds derived from EPA [1]: potencies equivalent to those described above for the compounds derived from EPA

Molecule: CC/C=C\C/C=C\C=C\C(O)C/C=C\C/C=C\C/C=C\CCC(=O)O (stereo not drawn) [13-hydroxy-DHA]
- potency relative to the compounds derived from EPA [1]: potencies equivalent to those described above for the compounds derived from EPA

Molecule: CC/C=C\CC(O)/C=C/C=C\C/C=C\C/C=C\C/C=C\CCC(=O)O (stereo not drawn) [17-hydroxy-DHA]
- potency relative to the compounds derived from EPA [1]: potencies equivalent to those described above for the compounds derived from EPA

Molecule: CC/C=C\C/C=C\C[C@@H](O)/C=C/C=C/C=C\[C@@H](O)CCCC(=O)O [LTB5]
- IC50 [3]: 500 nM

Molecule: O=C(O)CCC[C@H](O)[C@H](O)/C=C/C=C/C=C\C=C\[C@H](O)COc1ccc(F)cc1 [15-epi-LXA4 stable analogue, 15(5)-16(para-fluoro)-phenoxy-LXA4]
- rank order of potency, inhibition of PMN migration [1]: 15-epi-LXA4 stable analogue >5,12,18R-tri-HEPE >18R-HEPE
- inhibition of PMN infiltration into murine dorsal air pouches (in words) [4]: potent inhibitor of PMN infiltration

Molecule: CC[C@@H](O)/C=C/C=C\C/C=C\C/C=C\C/C=C\CCCC(=O)O [Compound 18R-HEPE, 18R-hydroxyeicosapentaenoic acid]
- IC50 ([1]; read-out: IC50, inhibition of LTB4-stimulated PMN transendothelial migration): > 1000 nM
- rank order of potency, inhibition of PMN migration [1]: 15-epi-LXA4 stable analogue >5,12,18R-tri-HEPE >18R-HEPE
- inhibition of PMN infiltration into murine dorsal air pouches (in words) [4]: some activity in vivo
- competition with 3H-LTB4 (in words) [3]: did not

Molecule: CC/C=C\C/C=C\CC(O)/C=C/C=C\C/C=C\C/C=C\CCC(=O)O (stereo not drawn) [14-hydroxy-DHA]
- potency relative to the compounds derived from EPA [1]: potencies equivalent to those described above for the compounds derived from EPA

Molecule: CC[C@@H](O)/C=C/C=C\C[C@@H](O)/C=C/C=C/C=C\[C@@H](O)CCCC(=O)O [5,12,18R-triHEPE]
- IC50 ([1]; read-out: apparent IC50, inhibition of LTB4-stimulated PMN transendothelial migration): 5 to 50 nM
- rank order of potency, inhibition of PMN migration [1]: 15-epi-LXA4 stable analogue >5,12,18R-tri-HEPE >18R-HEPE
- inhibition of PMN infiltration into murine dorsal air pouches (in words) [4]: potent inhibitor of PMN infiltration
- IC50 [3]: 500 nM
